The text below walks through data of article PMC4854315, “Discovery of a novel allosteric inhibitor-binding site in ERK5: comparison with the canonical kinase hinge ATP-binding site” (Acta Crystallographica. Section D, Structural Biology, 2016).

What all share (assay): Z'-LYTE kinase panel
Holding throughout (format): biochemical

The target in one experiment is T1, DCAMKL2 (DCK2) (Homo sapiens, UniProt Q8N568).
T1 construct: purchased ThermoFisher (SelectScreen, Z'-LYTE)
T1 sequence (Q8N568 1-766): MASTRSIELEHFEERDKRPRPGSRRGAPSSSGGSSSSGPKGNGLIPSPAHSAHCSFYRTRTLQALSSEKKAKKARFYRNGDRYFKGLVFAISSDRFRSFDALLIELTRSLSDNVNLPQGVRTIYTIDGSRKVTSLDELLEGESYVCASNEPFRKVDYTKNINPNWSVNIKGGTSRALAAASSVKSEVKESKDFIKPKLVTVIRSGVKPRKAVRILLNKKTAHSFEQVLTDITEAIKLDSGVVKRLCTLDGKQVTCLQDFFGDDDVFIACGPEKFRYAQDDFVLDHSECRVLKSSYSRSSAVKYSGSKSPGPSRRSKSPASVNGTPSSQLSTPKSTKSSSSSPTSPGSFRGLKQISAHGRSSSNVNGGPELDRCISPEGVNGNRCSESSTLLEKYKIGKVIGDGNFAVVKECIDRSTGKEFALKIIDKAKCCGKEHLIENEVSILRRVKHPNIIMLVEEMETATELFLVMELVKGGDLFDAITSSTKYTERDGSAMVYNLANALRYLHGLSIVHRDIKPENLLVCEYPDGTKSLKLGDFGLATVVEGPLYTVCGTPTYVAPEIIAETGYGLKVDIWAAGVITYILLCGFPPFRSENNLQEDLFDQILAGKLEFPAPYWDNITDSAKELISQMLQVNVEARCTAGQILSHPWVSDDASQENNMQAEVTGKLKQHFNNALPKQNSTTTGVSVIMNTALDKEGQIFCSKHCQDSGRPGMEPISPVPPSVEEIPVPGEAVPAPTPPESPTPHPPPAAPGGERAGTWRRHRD
How it is done:
(§1) Compounds 2, 3 and 5 were tested for activity against the 225 kinases in the ThermoFisher standard kinase panel. The standard Z′-LYTE assay protocol (ThermoFisher) was used to measure the percentage inhibition at 10 µM compound concentration (details are provided in the supporting information).

A further experiment addresses T2, ALK (Homo sapiens, UniProt Q9UM73).
T2 construct: purchased ThermoFisher (SelectScreen, Z'-LYTE)
How it is done:
as §1

The next experiment deals with T3, ADRBK1 (GRK2) (Homo sapiens, UniProt P25098).
T3 construct: purchased ThermoFisher (SelectScreen, Z'-LYTE)
T3 sequence (P25098 1-689): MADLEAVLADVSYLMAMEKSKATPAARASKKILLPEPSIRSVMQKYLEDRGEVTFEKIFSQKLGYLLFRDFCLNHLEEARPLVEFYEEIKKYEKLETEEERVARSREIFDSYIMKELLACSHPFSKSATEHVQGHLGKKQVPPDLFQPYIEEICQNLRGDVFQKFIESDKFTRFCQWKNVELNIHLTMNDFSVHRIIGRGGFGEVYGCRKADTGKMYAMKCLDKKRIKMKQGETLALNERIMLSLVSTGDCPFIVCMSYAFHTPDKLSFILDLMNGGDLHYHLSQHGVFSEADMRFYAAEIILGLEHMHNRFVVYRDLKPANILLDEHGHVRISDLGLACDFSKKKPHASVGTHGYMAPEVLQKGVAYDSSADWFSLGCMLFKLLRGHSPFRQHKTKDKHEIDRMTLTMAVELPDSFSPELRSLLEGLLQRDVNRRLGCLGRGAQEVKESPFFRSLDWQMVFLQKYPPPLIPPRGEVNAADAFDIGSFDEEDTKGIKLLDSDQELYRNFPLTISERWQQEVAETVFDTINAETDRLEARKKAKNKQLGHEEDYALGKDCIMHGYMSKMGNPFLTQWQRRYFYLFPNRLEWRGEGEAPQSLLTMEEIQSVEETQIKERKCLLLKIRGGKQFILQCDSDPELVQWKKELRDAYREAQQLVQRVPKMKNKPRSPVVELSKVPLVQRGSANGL
How it is done: as §1

The next experiment addresses T4, AURKB (Aurora B) (Homo sapiens, UniProt Q96GD4).
T4 construct: purchased ThermoFisher (SelectScreen, Z'-LYTE)
The procedure: as §1

The next experiment deals with T5, FES (FPS) (Homo sapiens, UniProt P07332).
T5 construct: purchased ThermoFisher (SelectScreen, Z'-LYTE)
T5 sequence (P07332 whole entry): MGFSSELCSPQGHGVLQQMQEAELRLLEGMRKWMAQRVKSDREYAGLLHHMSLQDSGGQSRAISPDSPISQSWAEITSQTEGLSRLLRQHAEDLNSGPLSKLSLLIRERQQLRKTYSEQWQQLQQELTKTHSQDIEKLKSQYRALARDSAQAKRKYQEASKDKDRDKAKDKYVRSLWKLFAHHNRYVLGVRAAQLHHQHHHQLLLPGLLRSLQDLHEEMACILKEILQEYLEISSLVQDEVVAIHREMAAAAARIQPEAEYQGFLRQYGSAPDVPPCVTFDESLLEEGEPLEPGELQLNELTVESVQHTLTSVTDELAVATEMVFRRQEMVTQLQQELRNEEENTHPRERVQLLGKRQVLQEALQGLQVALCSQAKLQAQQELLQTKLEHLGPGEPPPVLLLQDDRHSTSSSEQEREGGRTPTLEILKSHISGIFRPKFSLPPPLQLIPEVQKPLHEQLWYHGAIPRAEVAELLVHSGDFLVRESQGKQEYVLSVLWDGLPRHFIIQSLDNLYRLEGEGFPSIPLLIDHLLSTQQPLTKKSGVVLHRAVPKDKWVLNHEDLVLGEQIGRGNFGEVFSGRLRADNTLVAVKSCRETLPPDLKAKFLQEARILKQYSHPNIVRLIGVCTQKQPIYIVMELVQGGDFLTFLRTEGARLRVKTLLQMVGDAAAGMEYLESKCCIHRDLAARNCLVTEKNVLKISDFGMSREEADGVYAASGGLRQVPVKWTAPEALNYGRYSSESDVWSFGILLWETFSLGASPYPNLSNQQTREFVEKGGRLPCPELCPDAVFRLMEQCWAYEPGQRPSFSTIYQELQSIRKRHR
How it is done: as §1

The target in another experiment is T6, CSNK2A2 (CK2 alpha 2) (Homo sapiens, UniProt P19784).
T6 construct: purchased ThermoFisher (SelectScreen, Z'-LYTE)
T6 sequence (P19784 whole entry): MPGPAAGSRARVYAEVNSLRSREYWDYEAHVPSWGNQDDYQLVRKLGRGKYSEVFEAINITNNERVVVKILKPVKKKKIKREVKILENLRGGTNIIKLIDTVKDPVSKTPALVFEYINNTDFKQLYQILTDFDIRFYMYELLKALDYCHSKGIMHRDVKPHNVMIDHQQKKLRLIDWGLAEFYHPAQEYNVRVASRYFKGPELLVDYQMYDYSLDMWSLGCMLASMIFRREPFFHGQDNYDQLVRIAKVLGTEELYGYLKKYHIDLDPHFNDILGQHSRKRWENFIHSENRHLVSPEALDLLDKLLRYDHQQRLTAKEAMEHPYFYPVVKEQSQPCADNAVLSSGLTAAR
The procedure:
as §1

Another experiment has as its target T7, ABL1 (Homo sapiens, UniProt P00519).
T7 construct: purchased ThermoFisher (SelectScreen, Z'-LYTE)
The procedure:
as §1

Another experiment deals with T8, SRPK2 (Homo sapiens, UniProt P78362).
T8 construct: purchased ThermoFisher (SelectScreen, Z'-LYTE)
T8 sequence (P78362 whole entry): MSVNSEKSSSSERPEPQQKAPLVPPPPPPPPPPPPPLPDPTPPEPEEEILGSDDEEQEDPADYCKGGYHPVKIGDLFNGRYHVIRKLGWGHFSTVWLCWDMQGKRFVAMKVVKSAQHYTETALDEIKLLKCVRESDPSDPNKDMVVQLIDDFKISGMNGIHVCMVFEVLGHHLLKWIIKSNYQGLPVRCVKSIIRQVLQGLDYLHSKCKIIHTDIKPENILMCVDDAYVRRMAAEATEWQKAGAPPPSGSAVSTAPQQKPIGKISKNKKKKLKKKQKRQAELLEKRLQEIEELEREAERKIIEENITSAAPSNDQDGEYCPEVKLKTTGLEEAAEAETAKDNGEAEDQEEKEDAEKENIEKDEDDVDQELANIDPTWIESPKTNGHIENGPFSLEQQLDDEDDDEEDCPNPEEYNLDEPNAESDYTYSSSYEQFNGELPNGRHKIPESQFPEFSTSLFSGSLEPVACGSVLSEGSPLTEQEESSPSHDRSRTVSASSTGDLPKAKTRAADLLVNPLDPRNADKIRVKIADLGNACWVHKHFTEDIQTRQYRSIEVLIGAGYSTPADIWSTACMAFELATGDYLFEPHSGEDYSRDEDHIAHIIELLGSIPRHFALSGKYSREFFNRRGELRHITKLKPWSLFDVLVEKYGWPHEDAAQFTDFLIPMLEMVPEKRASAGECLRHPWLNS
The procedure: as §1

Another experiment concerns the target T9, JAK1 (Homo sapiens, UniProt P23458).
T9 construct: purchased ThermoFisher (SelectScreen, Z'-LYTE)
How it is done: as §1

A further experiment addresses T10, MUSK (Homo sapiens, UniProt O15146).
T10 construct: purchased ThermoFisher (SelectScreen, Z'-LYTE)
T10 sequence (O15146 24-869): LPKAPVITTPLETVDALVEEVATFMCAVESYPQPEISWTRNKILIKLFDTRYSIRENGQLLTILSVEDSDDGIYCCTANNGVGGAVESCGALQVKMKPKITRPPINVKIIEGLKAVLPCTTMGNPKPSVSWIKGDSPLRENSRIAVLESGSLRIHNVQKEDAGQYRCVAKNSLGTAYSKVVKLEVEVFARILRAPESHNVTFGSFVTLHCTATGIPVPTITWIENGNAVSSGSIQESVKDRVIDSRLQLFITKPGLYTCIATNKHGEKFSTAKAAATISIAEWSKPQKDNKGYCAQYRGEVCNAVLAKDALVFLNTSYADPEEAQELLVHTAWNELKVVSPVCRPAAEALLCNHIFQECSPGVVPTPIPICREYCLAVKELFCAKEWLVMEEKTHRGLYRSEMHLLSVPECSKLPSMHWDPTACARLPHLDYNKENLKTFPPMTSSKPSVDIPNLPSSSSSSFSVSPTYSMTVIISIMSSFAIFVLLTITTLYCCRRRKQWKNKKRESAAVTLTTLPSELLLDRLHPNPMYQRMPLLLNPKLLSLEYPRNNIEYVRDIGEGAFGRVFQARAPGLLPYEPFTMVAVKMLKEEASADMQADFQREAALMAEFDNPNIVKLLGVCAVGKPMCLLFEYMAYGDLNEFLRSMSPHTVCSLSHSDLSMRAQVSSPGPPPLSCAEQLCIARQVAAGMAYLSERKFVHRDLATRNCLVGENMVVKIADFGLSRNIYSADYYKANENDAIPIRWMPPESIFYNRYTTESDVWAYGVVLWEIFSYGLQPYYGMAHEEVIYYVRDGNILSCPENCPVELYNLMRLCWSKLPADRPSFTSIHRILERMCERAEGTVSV
The procedure: as §1

The target in the next experiment is T11, PTK2B (FAK2) (Homo sapiens, UniProt Q14289).
T11 construct: purchased ThermoFisher (SelectScreen, Z'-LYTE)
The procedure:
as §1

Another experiment has as its target T12, MARK2 (Homo sapiens, UniProt Q7KZI7).
T12 construct: purchased ThermoFisher (SelectScreen, Z'-LYTE)
The procedure:
as §1

T2 sequence (Q9UM73 19-1620): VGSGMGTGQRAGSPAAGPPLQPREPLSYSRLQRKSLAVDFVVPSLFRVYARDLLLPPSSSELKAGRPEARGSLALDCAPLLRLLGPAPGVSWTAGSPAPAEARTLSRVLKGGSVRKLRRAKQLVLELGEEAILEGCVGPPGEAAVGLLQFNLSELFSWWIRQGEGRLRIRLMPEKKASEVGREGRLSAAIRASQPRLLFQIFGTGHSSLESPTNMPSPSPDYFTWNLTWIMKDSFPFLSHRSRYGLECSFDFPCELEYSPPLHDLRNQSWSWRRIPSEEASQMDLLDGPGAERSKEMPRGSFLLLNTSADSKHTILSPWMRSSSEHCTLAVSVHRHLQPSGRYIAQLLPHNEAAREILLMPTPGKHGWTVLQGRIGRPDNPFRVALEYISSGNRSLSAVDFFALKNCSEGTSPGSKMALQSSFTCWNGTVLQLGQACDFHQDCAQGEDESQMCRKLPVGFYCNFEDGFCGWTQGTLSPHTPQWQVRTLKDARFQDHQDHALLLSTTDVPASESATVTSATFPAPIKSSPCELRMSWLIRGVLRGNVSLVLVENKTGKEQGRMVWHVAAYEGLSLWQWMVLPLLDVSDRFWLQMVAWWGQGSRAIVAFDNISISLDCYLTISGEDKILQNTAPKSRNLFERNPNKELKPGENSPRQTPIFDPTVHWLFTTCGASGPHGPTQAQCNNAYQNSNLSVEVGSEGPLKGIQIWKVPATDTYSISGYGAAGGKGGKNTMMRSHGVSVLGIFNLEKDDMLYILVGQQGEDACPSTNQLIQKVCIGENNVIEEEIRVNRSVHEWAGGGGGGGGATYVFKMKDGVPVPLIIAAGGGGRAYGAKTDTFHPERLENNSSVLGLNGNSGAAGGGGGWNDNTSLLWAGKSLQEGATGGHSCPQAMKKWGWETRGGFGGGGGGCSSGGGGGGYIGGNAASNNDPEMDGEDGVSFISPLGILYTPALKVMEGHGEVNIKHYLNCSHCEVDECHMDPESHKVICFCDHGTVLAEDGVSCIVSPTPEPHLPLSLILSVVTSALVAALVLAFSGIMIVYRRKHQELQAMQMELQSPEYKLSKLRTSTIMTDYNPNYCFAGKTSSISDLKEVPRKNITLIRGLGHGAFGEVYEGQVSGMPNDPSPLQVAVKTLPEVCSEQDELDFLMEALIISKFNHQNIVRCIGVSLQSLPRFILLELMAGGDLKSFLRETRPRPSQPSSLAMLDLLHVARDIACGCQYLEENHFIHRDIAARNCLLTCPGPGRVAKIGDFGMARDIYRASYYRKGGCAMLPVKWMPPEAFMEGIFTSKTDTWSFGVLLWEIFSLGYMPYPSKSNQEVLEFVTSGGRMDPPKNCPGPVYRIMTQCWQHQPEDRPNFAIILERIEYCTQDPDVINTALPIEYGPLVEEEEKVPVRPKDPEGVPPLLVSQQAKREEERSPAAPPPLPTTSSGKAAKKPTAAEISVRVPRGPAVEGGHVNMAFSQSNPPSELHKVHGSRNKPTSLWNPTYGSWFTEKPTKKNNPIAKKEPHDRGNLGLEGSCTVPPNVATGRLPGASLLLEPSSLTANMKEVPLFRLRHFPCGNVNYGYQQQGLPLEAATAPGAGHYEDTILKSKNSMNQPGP
T7 sequence (P00519 whole entry): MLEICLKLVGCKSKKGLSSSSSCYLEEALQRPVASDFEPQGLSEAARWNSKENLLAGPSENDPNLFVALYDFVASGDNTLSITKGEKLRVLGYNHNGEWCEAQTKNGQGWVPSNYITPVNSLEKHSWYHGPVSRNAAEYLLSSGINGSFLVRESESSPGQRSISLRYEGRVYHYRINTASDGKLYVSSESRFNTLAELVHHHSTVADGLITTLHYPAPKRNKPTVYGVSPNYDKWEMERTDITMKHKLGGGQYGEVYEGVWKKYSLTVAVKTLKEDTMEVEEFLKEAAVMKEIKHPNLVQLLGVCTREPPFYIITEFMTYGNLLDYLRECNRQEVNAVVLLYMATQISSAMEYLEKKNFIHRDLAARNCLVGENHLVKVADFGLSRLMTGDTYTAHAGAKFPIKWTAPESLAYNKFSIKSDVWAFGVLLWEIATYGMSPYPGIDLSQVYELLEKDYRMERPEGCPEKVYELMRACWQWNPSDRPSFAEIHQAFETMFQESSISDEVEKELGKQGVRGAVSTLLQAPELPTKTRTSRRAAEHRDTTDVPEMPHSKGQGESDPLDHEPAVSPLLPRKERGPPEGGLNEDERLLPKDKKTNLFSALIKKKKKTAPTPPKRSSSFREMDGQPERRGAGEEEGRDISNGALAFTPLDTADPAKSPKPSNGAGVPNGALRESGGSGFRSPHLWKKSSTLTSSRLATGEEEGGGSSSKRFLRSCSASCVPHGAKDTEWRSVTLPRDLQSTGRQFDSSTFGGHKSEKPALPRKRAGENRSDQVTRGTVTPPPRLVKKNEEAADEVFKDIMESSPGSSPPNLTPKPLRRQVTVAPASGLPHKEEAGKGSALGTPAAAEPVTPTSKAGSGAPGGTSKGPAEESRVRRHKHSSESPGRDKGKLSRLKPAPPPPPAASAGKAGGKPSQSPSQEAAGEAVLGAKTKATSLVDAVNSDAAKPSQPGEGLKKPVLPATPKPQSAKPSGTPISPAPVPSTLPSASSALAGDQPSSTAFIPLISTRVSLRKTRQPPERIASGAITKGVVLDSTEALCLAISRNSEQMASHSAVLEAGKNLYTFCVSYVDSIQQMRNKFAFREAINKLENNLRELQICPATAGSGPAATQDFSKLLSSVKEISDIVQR
T4 sequence (Q96GD4 whole entry): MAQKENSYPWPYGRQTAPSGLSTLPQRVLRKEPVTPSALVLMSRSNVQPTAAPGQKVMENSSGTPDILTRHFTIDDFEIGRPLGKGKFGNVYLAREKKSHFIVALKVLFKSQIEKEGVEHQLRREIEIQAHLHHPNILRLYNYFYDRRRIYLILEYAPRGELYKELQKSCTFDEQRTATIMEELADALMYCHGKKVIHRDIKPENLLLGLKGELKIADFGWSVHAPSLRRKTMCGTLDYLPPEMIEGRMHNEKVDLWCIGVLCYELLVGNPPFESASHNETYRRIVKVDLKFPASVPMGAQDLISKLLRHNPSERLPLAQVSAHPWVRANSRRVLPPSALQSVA

For `Cc1ncc(-c2nc(Nc3ccc(C(=O)NCCN4CCCCC4)cc3)ncc2F)n1C(C)C` [Compound 3], the inhibition (in general, the relative decrease from the control value, in per cent) at 10 µM stood at 62% on DCAMKL2 (DCK2); 78% on ALK; 17% on ADRBK1 (GRK2); 88% on AURKB (Aurora B); 106% on FES (FPS); 77% on CSNK2A2 (CK2 alpha 2). The inhibition at 10 µM against ABL1 stood at 91%; against SRPK2, 25%; against JAK1, 101%; against MUSK, 92%; on PTK2B (FAK2), 94%; against MARK2 it was 89%.
For `Cc1cc(Nc2nc(N)nn2C(=O)NC(C)C)ccc1Cl` [Compound 5], the inhibition at 10 µM was -1.9% at DCAMKL2 (DCK2); 20% on ALK; -0.227% against ADRBK1 (GRK2); 68% on AURKB (Aurora B); 9% on FES (FPS); 1.46% against CSNK2A2 (CK2 alpha 2). The inhibition at 10 µM is 57% at ABL1; -5% on SRPK2; 60% against JAK1; 22% on MUSK; 23% at PTK2B (FAK2); 24% against MARK2.
With “XMD8-92 [Compound 2, reference compound]”, the “DCAMKL2 (DCK2) % Inhibition” value on DCAMKL2 (DCK2) (10 µM compound, ATP Km app) was 61%. Also, the “ALK % Inhibition” value at ALK (10 µM compound, ATP Km app) was determined as 16%. Also, the “ADRBK1 (GRK2) % Inhibition” value at ADRBK1 (GRK2) (10 µM compound, ATP Km app) is -1%. On AURKB (Aurora B) (10 µM compound, ATP Km app), the “AURKB (Aurora B) % Inhibition” value is recorded as 39%. In addition, the “FES (FPS) % Inhibition” value at FES (FPS) (10 µM compound, ATP Km app) turned out to be 78%. On CSNK2A2 (CK2 alpha 2) (10 µM compound, ATP Km app), the “CSNK2A2 (CK2 alpha 2) % Inhibition” value is -1.72%. Also, the “ABL1 % Inhibition” value on ABL1 (10 µM compound, ATP Km app) turned out to be 72%. Besides, the “SRPK2 % Inhibition” value at SRPK2 (10 µM compound, ATP Km app) was -19%. Moreover, the “JAK1 % Inhibition” value at JAK1 (10 µM compound, ATP Km app) worked out at 32%. Besides, the “MUSK % Inhibition” value on MUSK (10 µM compound, ATP Km app) is recorded as 21%. Moreover, at PTK2B (FAK2) (10 µM compound, ATP Km app), the “PTK2B (FAK2) % Inhibition” value is 20%. In addition, the “MARK2 % Inhibition” value on MARK2 (10 µM compound, ATP Km app) came to 9%.
